What all share (assay): ITC
For orientation: In ITC the heat of successive injections is recorded.

In assay [1] the test system is ML4 (DNA, aptamer, none) TTCAAATCTTGGTACGTTCTGCCTTTTCTTATTTTGCTTTGGGTTACCTAGTCTAGATTTGAA
To be noted: 0.5x PBS (about 68 mM NaCl, 1.4 mM KCl), 5 mM MgCl2.

In assay [2] the test system is MT2-R1 (DNA, aptamer, none) GGGACGACGCTAGGGGATCTTTTGGGGTTTGTATGGGCGTCGTCCC
To be noted: 137 mM NaCl, 2.7 mM KCl, 1 mM MgCl2; 1x PBS, 23 °C.

Assay [3] relates to ML12 (DNA, aptamer, none) TTCAAATCTGCGGCGACTAATTCTTAGTGGTGGTTGCAATGCGCTGGGATGAGTCTAGATTTGAA
The following applies: 0.5x PBS (about 68 mM NaCl, 1.4 mM KCl), 5 mM MgCl2, 23 °C.

Assay [4] concerns ML13 (DNA, aptamer, none) TTCAAATCTGAGCAGCCTAGTTACTGACGGGTTTATAGTACTCGCACTGAGTCTAGATTTGAA
The following applies: 0.5x PBS (about 68 mM NaCl, 1.4 mM KCl), 5 mM MgCl2, 23 °C.

The subject of assay [5] is ML4-mut4 (DNA, aptamer, none) TTCAAATCTTGGTACGTTCTGCCTTTACTTATTTTGCTTTGGGTTACCTAGTCTAGATTTGAA
The following applies: 0.5x PBS (about 68 mM NaCl, 1.4 mM KCl), 5 mM MgCl2, 0.005% Triton X-100, 23 °C.

For assay [6], the system named is MT2-R4 (DNA, aptamer, none) GGGACGACGGCAATTGCCGGTGCAGGATCTGAATTATCGTCGTCCC
The following applies: 137 mM NaCl, 2.7 mM KCl, 1 mM MgCl2; 1x PBS, 23 °C.

In assay [7] the test system is M4 (DNA, aptamer, none) GGGACGACGCACTATGGCTAGGGTTGGTACGGTCGTGAACCGCGGGGTGTCGTCCC
To be noted: 137 mM NaCl, 2.7 mM KCl, 1 mM MgCl2; 1x PBS, 23 °C.

Assay [8] has as its system ML11 (DNA, aptamer, none) TTCAAATCTGAGCAGCCTAGTTACTGACGGGTTTATAGTACTCGTATTGAGTCTAGATTTGAA
The following applies: 0.5x PBS (about 68 mM NaCl, 1.4 mM KCl), 5 mM MgCl2, 23 °C.

For assay [9], the system named is ML3 (DNA, aptamer, none) TTCAAATCTTATGTACGTTCTATCGCATGGATGGGATTTTGGGTTACCTAGTCTAGATTTGAA
The following applies: 0.5x PBS (about 68 mM NaCl, 1.4 mM KCl), 5 mM MgCl2; 0.5x PBS pH 7.4, 0.005% Triton X-100, 23 °C; 9.9 at 2 mM, 34.3 at 1 mM Mg2+.

Assay [10] deals with 84-nt aptaMETH (DNA, aptamer, none) ACTGGAGCTCAATCAGTACACGACGGTTGCAAGTGGGACTCTGGTAGGCTGGGTTAATTTGGGACAAGCTTCAACCATGGAGTA
The following applies: 200 mM NaCl, 5 mM MgCl2; 20 mM Tris pH 7.4, 23 °C.

In assay [11] the test system is ML4-mut6 (DNA, aptamer, none) TTCAAATCTTGGTACGTTCTGCCTTTTCTTATTTAGCTTTGGGTTACCTAGTCTAGATTTGAA
The following applies: 0.5x PBS (about 68 mM NaCl, 1.4 mM KCl), 5 mM MgCl2, 0.005% Triton X-100, 23 °C.

Assay [12] relates to ML3-mut6 (DNA, aptamer, none) TTCAAATCTTATGTACGTTCTATCGCATGGATGGGATTTTGGGTTACCAAGTCTAGATTTGAA
To be noted: 0.5x PBS (about 68 mM NaCl, 1.4 mM KCl), 5 mM MgCl2, 0.005% Triton X-100, 23 °C, table says NA, 2000 titrant, 50 aptamer.

The subject of assay [13] is MT2-R3 (DNA, aptamer, none) GGGACGACGGTACCCGCCGGTGCAGGATCTGGGGTGGTGTCGTCCC
To be noted: 137 mM NaCl, 2.7 mM KCl, 1 mM MgCl2; 1x PBS, 23 °C.

Assay [14] concerns ML3-mut1 (DNA, aptamer, none) TTCAAATCTTATGTAAGTTCTATCGCATGGATGGGATTTTGGGTTACCTAGTCTAGATTTGAA
The following applies: 0.5x PBS (about 68 mM NaCl, 1.4 mM KCl), 5 mM MgCl2, 0.005% Triton X-100, 23 °C.

The test system of assay [15] is ML3-mut5 (DNA, aptamer, none) TTCAAATCTTATGTACGTTCTATCGCATGGATGGGATTTTTGGTTACCTAGTCTAGATTTGAA
The following applies: 0.5x PBS (about 68 mM NaCl, 1.4 mM KCl), 5 mM MgCl2, 0.005% Triton X-100, 23 °C, table says NA, 2000 titrant, 50 aptamer.

Assay [16] relates to M13 (DNA, aptamer, none) GGGACGACGGCACGAGGTTATTCGTTGGTTGCACTGCGCTGGGAGGAAGTCGTCCC
The following applies: 137 mM NaCl, 2.7 mM KCl, 1 mM MgCl2; 1x PBS, 23 °C; lowest KD of trial 3.

Assay [17] has as its system ML4-mut2 (DNA, aptamer, none) TTCAAATCTTGGTACGTTCTGCATTTTCTTATTTTGCTTTGGGTTACCTAGTCTAGATTTGAA
To be noted: 0.5x PBS (about 68 mM NaCl, 1.4 mM KCl), 5 mM MgCl2, 0.005% Triton X-100, 23 °C.

Assay [18] deals with ML4-mut5 (DNA, aptamer, none) TTCAAATCTTGGTACGTTCTGCCTTTTCTTATATTGCTTTGGGTTACCTAGTCTAGATTTGAA
The following applies: 0.5x PBS (about 68 mM NaCl, 1.4 mM KCl), 5 mM MgCl2, 0.005% Triton X-100, 23 °C.

The subject of assay [19] is MT2-R2 (DNA, aptamer, none) GGGACGACGAGGGGATCCATCCAATGGGGTTTGTATACGTCGTCCC
To be noted: 137 mM NaCl, 2.7 mM KCl, 1 mM MgCl2; 1x PBS, 23 °C.

Assay [20] has as its system ML4-mut1 (DNA, aptamer, none) TTCAAATCTTGGTACGTACTGCCTTTTCTTATTTTGCTTTGGGTTACCTAGTCTAGATTTGAA
To be noted: 0.5x PBS (about 68 mM NaCl, 1.4 mM KCl), 5 mM MgCl2, 0.005% Triton X-100, 23 °C.

For assay [21], the system named is ML3-mut4 (DNA, aptamer, none) TTCAAATCTTATGTACGTTCTATCGCATGGATGGGATTATGGGTTACCTAGTCTAGATTTGAA
To be noted: 0.5x PBS (about 68 mM NaCl, 1.4 mM KCl), 5 mM MgCl2, 0.005% Triton X-100, 23 °C.

Assay [22] concerns ML3-mut2 (DNA, aptamer, none) TTCAAATCTTATGTACGTACTATCGCATGGATGGGATTTTGGGTTACCTAGTCTAGATTTGAA
To be noted: 0.5x PBS (about 68 mM NaCl, 1.4 mM KCl), 5 mM MgCl2, 0.005% Triton X-100, 23 °C.

For assay [23], the system named is ML4-mut7 (DNA, aptamer, none) TTCAAATCTTGGTACGTTCTGCCTTTTCTTATTTTGCTATGGGTTACCTAGTCTAGATTTGAA
The following applies: 0.5x PBS (about 68 mM NaCl, 1.4 mM KCl), 5 mM MgCl2, 0.005% Triton X-100, 23 °C.

For assay [24], the system named is Aptamer-2 (DNA, aptamer, none) AGGAATTCAGATCTCCCTGCAGGTGGTGTTTTTTTTGTGTGCTGTGTTTTTGTGATGCATGCTCGAGGAGCTCAGGATCCCG
The following applies: 10 mM NaCl, 0.5 mM KCl, 0.2 mM MgCl2, 0.1 mM CaCl2; 2 mM Tris-HCl, 23 °C; very weak or no binding.

The subject of assay [25] is ML4-mut3 (DNA, aptamer, none) TTCAAATCTTGGTACGTTCTGCCTATTCTTATTTTGCTTTGGGTTACCTAGTCTAGATTTGAA
The following applies: 0.5x PBS (about 68 mM NaCl, 1.4 mM KCl), 5 mM MgCl2, 0.005% Triton X-100, 23 °C.

Assay [26] has as its system ML3-mut3 (DNA, aptamer, none) TTCAAATCTTATGTACGTTCTATCGCATGGATGTGATTTTGGGTTACCTAGTCTAGATTTGAA
The following applies: 0.5x PBS (about 68 mM NaCl, 1.4 mM KCl), 5 mM MgCl2, 0.005% Triton X-100, 23 °C.

Assay [27] deals with ML7 (DNA, aptamer, none) TTCAAATCTGGTGCCCTTTCGCAGTCGGTTGGTAATGAGATCACTTTAGAGTCTAGATTTGAA
To be noted: 0.5x PBS (about 68 mM NaCl, 1.4 mM KCl), 5 mM MgCl2, 23 °C.

The subject of assay [28] is ML10 (DNA, aptamer, none) TTCAAATCTGAGCAGCCTAGTTACTGACGGGTTTATAGTACTCACATTGAGTCTAGATTTGAA
To be noted: 0.5x PBS (about 68 mM NaCl, 1.4 mM KCl), 5 mM MgCl2, 23 °C.

For `CC(N)Cc1ccccc1` (stereo not shown), the KD (usually the free concentration of one partner at which half of the binding sites on the other are occupied at equilibrium, for simple one-to-one binding) in [1] (0.5x PBS, 23 °C) is 117 ± 4 µM; in [2], 5.7 ± 0.2 µM; in assay [3] it was 18.2 ± 0.5 µM; in assay [4] (double titration), 140 ± 3.9 µM.

`CCCC(C(=O)c1ccc2c(c1)OCO2)N1CCCC1` (stereo not shown) yielded a KD in assay [1] (0.5x PBS, 23 °C) of 344 ± 23 µM.

In assay [1] (0.5x PBS, 23 °C), `CNC(C)Cc1ccc(O)cc1` (stereo not shown) returned a dissociation constant (KD) of 255 ± 8 µM.

As to `CNC(C)Cc1ccc2c(c1)OCO2` (stereo not shown), in assay [1] (0.5x PBS, 23 °C), the KD was 223 ± 8 µM. This KD and that of the compound before are within 1.5-fold of each other.

Turning to `CN[C@@H](C)Cc1ccccc1`, the KD is 4.9 ± 0.2 µM in assay [5]; 10.1 ± 0.7 µM in assay [6]; 12 µM in [7]; 2.4 ± 0.1 µM in [8]; 1.5 ± 0.1 µM in assay [9]; 364 ± 28 µM in [10]. The KD in assay [11] was 3.8 ± 0.1 µM; in assay [12], over 1000 µM; in assay [13], 18.0 ± 1.1 µM; in assay [14] it was 408 ± 16 µM; in assay [15], over 1000 µM; in assay [16] it was 3.3 µM. Further, the dissociation constant KD in assay [17] was determined as 4.0 ± 0.1 µM; in assay [18], 3.3 ± 0.1 µM; in assay [1] (0.5x PBS pH 7.4, 0.005% Triton X-100, 23 °C, 16.2 at 2 mM, 65.2 at 1 mM Mg2+) it was 2.5 ± 0.1 µM; in [2] it was 2.5 ± 0.1 µM; in assay [3], 5.7 ± 0.3 µM; in assay [19] it was 5.0 ± 0.1 µM. Further, the KD in [20] was 67.1 ± 4.1 µM; in [21], 72.5 ± 3.1 µM; in assay [22], 39.0 ± 1.8 µM; in assay [23], 64.3 ± 3.9 µM; in assay [24], over 1000 µM; in assay [25], 3.2 ± 0.1 µM. Moreover, the equilibrium dissociation constant (KD) in assay [26] is 1.4 ± 0.1 µM; in [4] it was 7.0 ± 0.4 µM; in assay [27], 1.30 ± 0.03 µM; in assay [28] it was 1.9 ± 0.1 µM.

For `CN[C@@H](C)[C@@H](O)c1ccccc1`, in assay [1] (0.5x PBS, 23 °C), the KD is 372 ± 24 µM.

`CN[C@H](C)Cc1ccccc1`: the KD in assay [10] was over 1000 µM; in [1] (0.5x PBS, 23 °C), 450 ± 21 µM; in [24] it was over 1000 µM.

`COC(=O)C(c1ccccc1)C1CCCCN1` (stereo not shown): in [1] (0.5x PBS, 23 °C), the KD came to 749 ± 10 µM.

These data come from paper PMC11672540 (2024).
